According to paper PMC8006142 (Journal of Medicinal Chemistry, 2021):

Experiments:
AM1 receptor = molecular target: T1, AM1 receptor (Homo sapiens, UniProt O60895+Q16602); experiment: TR-FRET cAMP accumulation, AM1 receptor cross-screen; type: cell-based; conditions: Table 2; read-out: pIC50 AM1 (converted)
T1 construct: expressed in transfected cells; host or cells: GPCR/RAMP-overexpressing cells; the AM1 line itself is not described
Experimental: (§1) The ability of the compounds to inhibit cAMP production induced by an EC50 concentration of the maximum agonist activation (information previously published[34]) in GPCR/RAMP-overexpressing cells (i.e., AM2, CGRP cells) was evaluated using cAMP accumulation assays. Each compound was tested at 8 full-log concentrations (10^–11–10^–5 M) including a negative control (blank). The total cAMP was measured using the TR-FRET LANCE cAMP detection kit (PerkinElmer, AD0264), as described previously.[34] Briefly, frozen cells ([…]) were thawed and prepared in warm stimulation buffer (1× HBSS, 5 mM N-(2-hydroxyethyl)piperazine-N′-ethanesulfonic acid (HEPES), 0.5 mM IBMX, and 0.1% bovine serum albumin (BSA)). Alexa Fluor conjugated anti-cAMP (1:100 concentration) was then added to the cell suspension, and cells were plated (2500 cells, 6 μL) in a 384-well white opaque microtiter plate (OptiPlates, PerkinElmer, 6007299). […] Subsequently, a 12 μL detection mix (Europium-Chelate streptavidin/biotinylated cAMP) was added to stop the reaction and induce cell lysis. TR-FRET was detected after an hour of incubation by an EnSight multimode Plate reader (PerkinElmer) at 320/340 nm excitation and 615/665 nm emission. Data were normalized to agonist only and blank (stimulation buffer only) wells as 0 and 100% cAMP inhibition, respectively.
The final DMSO concentration was below 0.5%, and this was kept consistent in all of the wells, including agonist alone and blank. The same methodology including the number of cells was used for all cell lines. […] No further constraints in any parameters of the curves were used.

CGRP receptor = CGRP receptor (Homo sapiens, UniProt O60894+Q16602); experiment: TR-FRET cAMP accumulation, inhibition of agonist-induced cAMP in CGRP receptor-overexpressing cells; type: cell-based; conditions: supplementary CSV; read-out: pIC50 CGRPR (converted)
Experimental: as §1, with “respectively. […]” for “respectively.”

AM2 receptor = AM2 receptor (Homo sapiens, UniProt O60896+Q16602); experiment: TR-FRET cAMP accumulation, inhibition of agonist-induced cAMP in AM2 receptor-overexpressing cells; type: cell-based; conditions: supplementary CSV; read-out: pIC50 AM2R (converted)
Experimental: as §1, with “respectively. […]” for “respectively.”

MDA-MB-231 cells = experiment: Real-Time-Glo MT viability assay; type: cell-based, human; conditions: 10 μM, daily treatment, after 3 days, versus vehicle-treated controls
Experimental: Cell viability in human breast cancer cells (MDA-MB-231) was quantified using Real-Time-Glo MT Cell Viability Assay (Promega, G9712) as previously described.[34] Cells (2000 cells) were seeded into 96-well white clear-bottom plates (Corning, 3903) in full serum media overnight before washing and changing to suboptimal media (RPMI + 5% FBS + 1% P/S) containing Real-Time-Glo reagents according to the Promega protocol. A baseline luminescence read (prior to treatment) was taken using an EnSight Multimode Plate Reader (PerkinElmer) after an hour of incubation at 37 °C. Cells were then treated with compounds or vehicle control (PBS + 0.05% DMSO) daily. Results were normalized to vehicle-treated controls as 100% viable (Graphpad Prism 7 and 8).

MDA-MB-231 tumor = experiment: Subcutaneous MDA-MB-231 xenograft in BALB/c nude mice; type: in vivo
Experimental: The study was performed using 6–7 week old BALB/c nude female mice, with a weight range of 15–20 g. Animals were provided by Envigo Corporation (Cambridgeshire, U.K.) or Charles River Laboratories (Massachusetts) depending on availability. Each experiment started with 10 mice (experimental units) in each experimental/control group. Subsequent analysis (tumor growth and histology) was only performed in animals where tumors had established and were palpable within 3 days of implantation. This was in accordance with the power calculation performed to ensure robust statistical analysis by the University of Sheffield Statistical Service. The animals were housed in individually ventilated cages (with the appropriate bedding and flooring conditions) in environmentally controlled conditions with a 12 h light/dark cycles at ∼26 °C. Mice had access to an adequate amount of water and a 2018 Teklad Global 18% Protein Rodent Diet containing 1.01% calcium (Harlan Laboratories, U.K.). The day-to-day care of the animals was carried out by the technicians in the Biological Services (The University of Sheffield, U.K.). All scientific procedures on animals were carried under the U.K. Home Office Project Licenses (40/3499) and Procedure Individual Licenses.
Compounds were dissolved in DMSO (Sigma-Aldrich, D4540) and sonicated at 37 °C for 10 min. The appropriate volume of solvent (Kolliphor HS15 (1 part, grams), Kollisolv PEG E 400 (3 parts, mL), and PBS (6 parts, mL)) was then added to yield a 6% DMSO/94% solvent solution. These working stocks (8 mg/mL) were further sonicated at 37 °C for 10 min before storing at −20 °C. To make treatment aliquots, equal amounts of the working stock (or vehicle control) and solvent were mixed and sonicated at 37 °C for 10 min (4 mg/mL, equivalent to 20 mg/kg, 3% DMSO/97% solvent). Vehicle control and compounds were sonicated at 37 °C for 10 min prior to ip injections (200 μL per mouse).
Cells were prepared according to standard cell culture techniques. Cell pellets were resuspended in 50% PBS/50% Matrigel (Corning, 354234). Matrigel/PBS cell suspension, needles (25G), and syringes (1 mL) were kept on ice before and during tumor inoculation into mice. Cell suspension (100 μL, 5 × 10^6 cells) was injected subcutaneously into the left flank of 6–7 weeks old female immunodeficient nude athymic mice (BALB/c nude). Once the tumors became palpable (around 100 mm^3), mice were randomized into treatment groups. Mice were treated daily at the same time of the day with an ip injection of 20 mg/kg of compound or vehicle control (200 μL per mouse) until humane end point. […] Tumor size and mouse weights were measured twice a week. At the end of each study, the animals were euthanized following the appropriate procedures listed in the ASPA Act 1986. Vital organs and tumors were stored in 10% neutral-buffered formalin for further histological analysis. The primary experimental outcome was tumor volume. The percentage tumor volume was calculated by normalizing measured tumor volumes to the initial tumor volume prior to the start of treatment on day 5. Simple linear regression was done to compare the line of best fit between the growth curves. Blinding was not used for the in vivo studies.

CGRP = tested on: CGRP; parameters: method as in PMID 24900170, PMID 16161996; conditions: cited from earlier work

T1 sequence (Q16602 23-461): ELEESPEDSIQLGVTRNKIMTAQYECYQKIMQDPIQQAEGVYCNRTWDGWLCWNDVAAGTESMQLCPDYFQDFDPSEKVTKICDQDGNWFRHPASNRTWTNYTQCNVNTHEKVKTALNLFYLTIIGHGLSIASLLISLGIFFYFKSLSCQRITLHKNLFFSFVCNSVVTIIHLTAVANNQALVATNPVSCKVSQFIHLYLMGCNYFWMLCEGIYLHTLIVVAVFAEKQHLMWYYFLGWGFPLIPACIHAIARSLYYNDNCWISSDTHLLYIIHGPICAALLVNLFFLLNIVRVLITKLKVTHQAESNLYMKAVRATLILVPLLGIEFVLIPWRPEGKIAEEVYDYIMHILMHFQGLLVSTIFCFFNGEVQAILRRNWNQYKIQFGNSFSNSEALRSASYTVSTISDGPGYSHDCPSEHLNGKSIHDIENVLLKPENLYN
T1 sequence (O60895 43-175): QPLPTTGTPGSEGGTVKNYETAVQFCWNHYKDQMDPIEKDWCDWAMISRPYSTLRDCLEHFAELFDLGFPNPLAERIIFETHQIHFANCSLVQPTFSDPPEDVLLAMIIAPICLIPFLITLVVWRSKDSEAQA
Chain of AM2 receptor (Q16602 23-461): as the sequence (Q16602 23-461) above
Chain of AM2 receptor (O60896 24-148): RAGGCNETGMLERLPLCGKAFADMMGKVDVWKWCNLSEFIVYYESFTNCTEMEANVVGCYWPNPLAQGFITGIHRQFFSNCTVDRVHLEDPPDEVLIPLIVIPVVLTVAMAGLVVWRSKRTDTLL
Chain of CGRP receptor (Q16602 23-461): as the sequence (Q16602 23-461) above
Chain of CGRP receptor (O60894 27-148): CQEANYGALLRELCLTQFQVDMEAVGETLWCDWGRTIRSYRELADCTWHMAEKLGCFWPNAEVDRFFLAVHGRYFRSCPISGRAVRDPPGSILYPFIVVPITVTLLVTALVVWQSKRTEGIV

Row | SMILES | IC50 (AM1 receptor) [µM] | also measured
1 | CN1CCCC(CN(CC(=O)Nc2ccc3c(c2)CC2(C3)C(=O)Nc3ncccc32)C(=O)C(C)(C)C)C1 (racemic) [(±)-6, N-((1-Methylpiperidin-3-yl)methyl)-N-(2-oxo-2-((2′-oxo-1,1′,2′,3-tetrahydrospiro[indene-2,3′-pyrrolo[2,3-b]pyridin]-5-yl)amino)ethyl)pivalamide] | > 10 | 
2 | CC(C)(C)C(=O)N(CC(=O)Nc1ccc2c(c1)CC1(C2)C(=O)Nc2ncccc21)Cc1nccs1 (stereo not shown) [Compound 8, N-(2-Oxo-2-((2′-oxo-1,1′,2′,3-tetrahydrospiro[indene-2,3′-pyrrolo[2,3-b]pyridin]-5-yl)amino)ethyl)-N-(thiazol-2-ylmethyl)pivalamide] | 25.1 | 
3 | CC(C)(C)C(=O)N(CC(=O)Nc1ccc2c(c1)CC1(C2)C(=O)Nc2ncccc21)Cc1ccccc1CNCc1ncc[nH]1 (stereo not shown) [Compound 23, N-(2-((((1H-Imidazol-2-yl)methyl)amino)methyl)benzyl)-N-(2-oxo-2-((2′-oxo-1,1′,2′,3-tetrahydrospiro[indene-2,3′-pyrrolo[2,3-b]pyridine]-5-yl)amino)ethyl)pivalamide] |  | IC50 (CGRP receptor): 0.00398 µM; IC50 (AM2 receptor): 0.251 µM
4 | CNCc1ccccc1CN(CC(=O)Nc1ccc2c(c1)CC1(C2)C(=O)Nc2ncccc21)C(=O)C(C)(C)C (stereo not shown) [Compound 25] | 2 | decrease of MDA-MB-231 viability (MDA-MB-231 cells): 55%; tumor growth rates (MDA-MB-231 tumor; 20 mg/kg ip daily, simple linear regression, p < 0.001): significantly reduced; adverse effects (MDA-MB-231 tumor; 20 mg/kg ip once daily): No adverse effects were observed; body weight compared with vehicle-treated mice (MDA-MB-231 tumor; 20 mg/kg ip once daily): did not differ significantly; tolerability (MDA-MB-231 tumor; 20 mg/kg ip once daily): well tolerated; decrease of breast cancer xenograft tumor growth (MDA-MB-231 tumor; 20 mg/kg ip once daily, 4 weeks after treatment, versus vehicle): 47%
5 | CC(C)(C)C(=O)N(CC(=O)Nc1ccc2c(c1)CC1(C2)C(=O)Nc2ncccc21)Cc1ccccc1CNC1CC1 (stereo not shown) [Compound 26, N-(2-((Cyclopropylamino)methyl)benzyl)-N-(2-oxo-2-((2′-oxo-1,1′,2′,3-tetrahydrospiro[indene-2,3′-pyrrolo[2,3-b]pyridin]-5-yl)amino)ethyl)pivalamide] | 3.16 | 
6 | CC(C)(C)C(=O)N(CC(=O)Nc1ccc2c(c1)CC1(C2)C(=O)Nc2ncccc21)Cc1ccccc1CN1CCC1 (stereo not shown) [Compound 27, N-(2-(Azetidin-1-ylmethyl)benzyl)-N-(2-oxo-2-((2′-oxo-1,1′,2′,3-tetrahydrospiro[indene-2,3′-pyrrolo[2,3-b]pyridine]-5-yl)amino)ethyl)pivalamide] | 2 | 
7 | O=C(CN1C(=O)C2(CCCC2)NC[C@H]1c1cc(F)cc(F)c1)Nc1ccc2c(c1)C[C@@]1(C2)C(=O)Nc2ncccc21 [MK-3207] |  | CGRP potency (CGRP): 0.00012 µM

Now from value to compound, other results behind:

Row | IC50 (AM1 receptor) [µM] | SMILES | also measured
8 | > 10 | CC(N)c1ccccc1CN(CC(=O)Nc1ccc2c(c1)CC1(C2)C(=O)Nc2ncccc21)C(=O)C(C)(C)C (racemic) [(±)-29, N-(2-(1-Aminoethyl)benzyl)-N-(2-oxo-2-((2′-oxo-1,1′,2′,3-tetrahydrospiro[indene-2,3′-pyrrolo[2,3-b]pyridin]-5-yl)amino)ethyl)pivalamide] | 
9 | 50.1 | CC(C)(C)C(=O)N(CC(=O)Nc1ccc2c(c1)CC1(C2)C(=O)Nc2ncccc21)Cc1ccccn1 (stereo not shown) [Compound 5, N-(2-Oxo-2-((2′-oxo-1,1′,2′,3-tetrahydrospiro[indene-2,3′-pyrrolo[2,3-b]pyridin]-5-yl)amino)ethyl)-N-(pyridin-2-ylmethyl)pivalamide] | 
10 | 7.94 | CC(C)(C)C(=O)N(CC(=O)Nc1ccc2c(c1)CC1(C2)C(=O)Nc2ncccc21)Cc1ccccc1CN (stereo not shown) [Compound 12, N-(2-(Aminomethyl)benzyl)-N-(2-oxo-2-((2′-oxo-1,1′,2′,3-tetrahydrospiro[indene-2,3′-pyrrolo[2,3-b]pyridin]-5-yl)amino)ethyl)pivalamide] | 
11 | 1.26 | CC(C)(C)C(=O)N(CC(=O)Nc1ccc2c(c1)CC1(C2)C(=O)Nc2ncccc21)Cc1ccccc1CO (stereo not shown) [Compound 13, N-(2-(Hydroxymethyl)benzyl)-N-(2-oxo-2-((2′-oxo-1,1′,2′,3-tetrahydrospiro[indene-2,3′-pyrrolo[2,3-b]pyridin]-5-yl)amino)ethyl)pivalamide] | 
12 | 6.31 | CC(C)(C)C(=O)N(CC(=O)Nc1ccc2c(c1)CC1(C2)C(=O)Nc2ncccc21)Cc1ccccc1C(N)=O (stereo not shown) [Compound 15, 2-((N-(2-Oxo-2-((2′-oxo-1,1′,2′,3-tetrahydrospiro[indene-2,3′-pyrrolo[2,3-b]pyridin]-5-yl)amino)ethyl)pivalamido)methyl)benzamide] | 
